Data on 44 compounds can be found in US9714243B2, “4-pyridinonetriazine derivatives as HIV integrase inhibitors” (Merck Sharp & Dohme Corp., priority 2012, dated 2017).

Where two headings read alike, the source gives them in different places.

In the test the test system is HIV-1 (NL4-3 strain). The test can be described thus: Assay for inhibition of HIV replication (ViKinG; infected MT4-GFP cells). The test is classed as cell-based. Here is the method:
Assay for inhibition of HIV replication
MT4-GFP cells (250,000 cells/ml) were bulk-infected with HIV-1 (NL4-3 strain) at low multiplicity of infection (MOI) in RPMI+10% FBS for 24 hours. […] Test compounds were serial-diluted in DMSO on ECHO. The infected MT4-GFP cells were added to a 384-well poly-D-lysine coated black plate with clear bottom in which the diluted test compounds were placed. The cells were seeded at 8,000 cells per well and the final DMSO concentration was 0.4%. The infected cells (Green GFP cells) were quantified at both 24 and 48 hours post incubation using Acumen eX3. Viral reproductive ratio (R0) was determined using the number of infected cells at 48 hours divided by the number of infected cells at 24 hours. Percent viral growth inhibition was calculated by [1−(R−Rtripledrug)/(RDMSO−Rtripledrug)]*100. Compound potency IP or IC50 was determined by a 4-parameter dose response curve analysis.

[1] abbreviates: MT4-GFP cells infected with HIV-1 NL4-3, 0% normal human serum (NHS), read-out: ViKinG IP (nM) with 0% NHS.
Setting [2] is: MT4-GFP cells infected with HIV-1 NL4-3, 100% normal human serum (NHS), read-out: ViKinG IP (nM) with 100% NHS.
Where [3] appears, read: Human immunodeficiency virus 1, NL43, MT4-GFP cells infected with HIV-1 NL4-3, 0% normal human serum (NHS), read-out: ViKinG IP (nM) with 0% NHS.
Where [4] appears, read: Human immunodeficiency virus 1, NL43, MT4-GFP cells infected with HIV-1 NL4-3, 100% normal human serum (NHS), read-out: ViKinG IP (nM) with 100% NHS.
[5] abbreviates: MT4-GFP cells infected with HIV-1 NL4-3, 10% normal human serum (NHS), read-out: ViKinG IP (nM) with 10% NHS.
The mark [6] stands for this setting: Human immunodeficiency virus 1, NL43, MT4-GFP cells infected with HIV-1 NL4-3, 10% normal human serum (NHS), read-out: ViKinG IP (nM) with 10% NHS.

Regarding `CN1C2C(O)CCCN2C(=O)c2c(O)c(=O)c(-c3nnc(Cc4ccc(F)cc4F)s3)cn21` (stereo not shown) [Compound 166], the IC50 stood at 9 nM under setting [1] and 162 nM under setting [2].
Turning to `CC(C)[C@]1(C(=O)NC2CC2)CCC2(C1)N(C)C(=O)c1c(O)c(=O)c(-c3nnc(Cc4ccc(F)cc4F)s3)cn1N2C` (stereo partly shown) [Compound 144], the IC50 under setting [3] was determined as 10.7 nM and the IC50 under setting [4] stood at 205 nM.
With `CCN1C(=O)c2c(O)c(=O)c(-c3nnc(Cc4ccc(F)cc4F)s3)cn2N(C)C12CCC(C(=O)N(C)C)CC2` (stereo not shown) [Compound 101], under setting [5], the IC50 is 37.5 nM.
Still for that read-out and setting: with `CCN1C(=O)c2c(O)c(=O)c(-c3nnc(Cc4ccc(F)cc4F)s3)cn2N(C)C12CC[C@H](C(=O)OC)[C@H](C)C2` (stereo partly shown) [Compound 31] the figure was 32.2 nM.
For `CN1C(=O)c2c(O)c(=O)c(-c3nnc(Cc4ccc(F)cc4F)s3)cn2N(C)C12CCC(OC(=O)C(Cl)Cl)CC2` (stereo not shown) [Compound 68], the IC50 under setting [6] was 10.5 nM.
`C[C@@H]1n2cc(C(=O)NCc3ccc(F)cc3F)c(=O)c(O)c2C(=O)N(C)C12CC2` [Compound 176]: the IC50 came to 2.12 nM under setting [3] and 39 nM under setting [4].
Take `CCN1C(=O)c2c(O)c(=O)c(-c3nnc(Cc4ccc(F)cc4)s3)cn2N(C)C1c1ccn[nH]1` (stereo not shown) [Compound 6]: the IC50 runs as follows: under setting [6], 30.8 nM; under setting [4], 357 nM.
Consider `COCCNC(=O)C1CCC2(CC1)N(C)C(=O)c1c(O)c(=O)c(-c3nnc(Cc4ccc(F)cc4F)s3)cn1N2C` (stereo not shown) [Compound 122], for which the IC50 by setting is: under setting [1], 5.51 nM; under setting [5], 18.4 nM.
Consider `CN(CC(F)(F)F)C(=O)C1CCC2(CC1)N(C)C(=O)c1c(O)c(=O)c(-c3nnc(Cc4ccc(F)cc4F)s3)cn1N2C` (stereo not shown) [Compound 108], for which the IC50 stood at 24 nM under setting [3], 16.1 nM under setting [6] and 478 nM under setting [4].
Take `CN1C(=O)c2c(O)c(=O)c(-c3nnc(Cc4ccc(F)cc4F)s3)cn2N(C)C12CCC(C(=O)N1CC(F)(F)C1)CC2` (stereo not shown) [Compound 119]: the IC50 amounted to 5.26 nM under setting [3], 35.6 nM under setting [5] and 189 nM under setting [2].
Regarding `CCN1C(=O)c2c(O)c(=O)c(-c3nnc(Cc4ccc(F)cc4F)s3)cn2N(C)C1c1cccc(OC)n1` (racemic) [Compound 18], the IC50 under setting [6] is 38.7 nM and the IC50 under setting [4] stood at 1190 nM.
Take `COC(=O)[C@@]12C[C@@H]1CCC21NC(=O)c2c(O)c(=O)c(-c3nnc(Cc4ccc(F)cc4F)s3)cn2N1C` (mixture of isomers) [Compound 204]: the IC50 is, setting by setting: under setting [3], 2.81 nM; under setting [6], 9.04 nM; under setting [4], 146 nM.
In the case of `CN(C)C(=O)C1CCC2(CC1)N(C)C(=O)c1c(O)c(=O)c(-c3nnc(Cc4ccc(F)cc4)s3)cn1N2C` (stereo not shown) [Compound 146], the IC50 under setting [4] turned out to be 188 nM and the IC50 under setting [5] turned out to be 9.02 nM.
The like results for `CN1C2CCCCN2C(=O)c2c(O)c(=O)c(-c3nnc(Cc4ccc(F)cc4)s3)cn21` (stereo not shown) [Compound 153] were, in that order, 1430 nM and 16.5 nM.
For the compound `CCN1C(=O)c2c(O)c(=O)c(-c3nnc(Cc4ccc(F)cc4F)s3)cn2N(C)C12C[C@H]1CC(CC(=O)OC)C[C@H]1C2` (stereo partly shown) [Compound 36], under setting [6], the IC50 came out at 52.6 nM.
With `CCN1C(=O)c2c(O)c(=O)c(-c3nnc(Cc4ccc(F)cc4F)s3)cn2N(C)C12CCC(OCCOCCOC)CC2` (stereo not shown) [Compound 67], the IC50 is, setting by setting: under setting [1], 12.5 nM; under setting [2], 160 nM.
Regarding `CN1C(=O)c2c(O)c(=O)c(-c3nnc(Cc4ccc(F)cc4F)s3)cn2N(C)C12CCC(C(N)=O)CC2` (stereo not shown) [Compound 107], the IC50 by setting is: under setting [1], 4.96 nM; under setting [5], 46.4 nM.
As for `O=C1NC2(CCC2)Cn2cc(-c3nnc(Cc4ccc(F)cc4F)s3)c(=O)c(O)c21` [Compound 210], the IC50 by setting is: under setting [3], 4.11 nM; under setting [6], 68.4 nM.
As to `CCCOC1CCC2(CC1)N(CC)C(=O)c1c(O)c(=O)c(C(=O)NCc3ccc(F)cc3F)cn1N2C` (stereo not shown) [Compound 193], the IC50 under setting [1] was determined as 8.24 nM and the IC50 under setting [2] was 84.8 nM.
For `CN1C(=O)c2c(O)c(=O)c(-c3nnc(Cc4ccc(F)cc4F)s3)cn2N(C)C12CC[C@@H]1C[C@@]12CO` (stereo partly shown) [Compound 195], the IC50 runs as follows: under setting [3], 2.02 nM; under setting [2], 190 nM.
With `CCN1C(=O)c2c(O)c(=O)c(-c3nnc(Cc4ccc(F)cc4F)s3)cn2N(C)C12CCC(CO)CC2` (stereo not shown) [Compound 55], the IC50 reads like this: under setting [3], 6.46 nM; under setting [4], 279 nM.
As for `CN(C)C(=O)C1(C)CCC2(CC1)N(C)C(=O)c1c(O)c(=O)c(-c3nnc(Cc4ccc(F)cc4)s3)cn1N2C` (stereo not shown) [Compound 147], the IC50 turned out to be 15.1 nM under setting [6] and 117 nM under setting [4].
Take `CCN1C(=O)c2c(O)c(=O)c(C(=O)NCc3ccc(F)cc3F)cn2N(C)C12CC[C@@H]1C[C@@H]12` (stereo partly shown) [Compound 188]: the IC50 was determined as 1.49 nM under setting [3] and 406 nM under setting [4].
As for `CN1C(=O)c2c(O)c(=O)c(-c3nnc(Cc4ccc(F)cc4F)s3)cn2N(C)C12CCC(C(=O)NCC1CCOC1)CC2` (stereo not shown) [Compound 129], the IC50 is, setting by setting: under setting [1], 67.7 nM; under setting [5], 1080 nM.
For the compound `CC1CCC2N1C(=O)c1c(O)c(=O)c(-c3nnc(Cc4ccc(F)cc4F)s3)cn1N2C` (stereo not shown) [Compound 156], the IC50 reads like this: under setting [6], 26.7 nM; under setting [4], 989 nM.
For the compound `CCN1C(=O)c2c(O)c(=O)c(-c3nnc(Cc4ccc(F)cc4)s3)cn2N(C)C1C1CCOCC1` (racemic) [Compound 219], under setting [6], the IC50 worked out at 26.9 nM.
`CN1C(=O)c2c(O)c(=O)c(-c3nnc(Cc4ccc(F)cc4F)s3)cn2N(C)C12CCC1C(=O)NC(=O)C1C2` (stereo not shown) [Compound 80]: the IC50 was 50.1 nM under setting [3] and 915 nM under setting [4].
As to `CCN1C(=O)c2c(O)c(=O)c(-c3nnc(Cc4ccc(F)cc4)s3)cn2N(C)C12CCC(C(=O)N(C)C)CC2` (stereo not shown) [Compound 94], the IC50 turned out to be 130 nM under setting [4] and 9.83 nM under setting [5].
As to `CN1C(=O)c2c(O)c(=O)c(C(=O)NCc3ccc(F)cc3F)cn2CC12CCC2` [Compound 178], the IC50 was determined as 2.73 nM under setting [3] and 233 nM under setting [4].
Consider `CCOP(=O)(OCC)C1CCC2(C1)N(CC)C(=O)c1c(O)c(=O)c(-c3nnc(Cc4ccc(F)cc4F)s3)cn1N2C` (stereo not shown) [Compound 38], for which the IC50 under setting [5] was 95.4 nM.
Regarding `CCN1C(=O)c2c(O)c(=O)c(-c3nnc(Cc4ccc(F)cc4F)s3)cn2N(C)C12CCC(c1nc(C)no1)CC2` (stereo not shown) [Compound 47], the IC50 reads like this: under setting [1], 11.6 nM; under setting [2], 186 nM.
For the compound `CCN1C(=O)c2c(O)c(=O)c(-c3nnc(Cc4ccc(F)cc4)s3)cn2N(C)C12CCC(CC(=O)N(C)C)CC2` (stereo not shown) [Compound 98], the IC50 reads like this: under setting [5], 32.2 nM; under setting [2], 168 nM.
Consider `COc1cc(CNC(=O)C2CCC3(CC2)N(C)C(=O)c2c(O)c(=O)c(-c4nnc(Cc5ccc(F)cc5F)s4)cn2N3C)on1` (stereo not shown) [Compound 135], for which the IC50 runs as follows: under setting [6], 290 nM; under setting [1], 76.3 nM.
For the compound `CN1C(=O)c2c(O)c(=O)c(-c3nnc(Cc4ccc(F)cc4F)s3)cn2N(C)C12CCC(N)CC2` (stereo not shown) [Compound 75], the IC50 is, setting by setting: under setting [3], 5.02 nM; under setting [6], 35.3 nM.
Regarding `CN1C(=O)c2c(O)c(=O)c(-c3nnc(Cc4ccc(F)cc4F)s3)cn2N(C)C12CCC(C(=O)NC1CC1)C2` (stereo not shown) [Compound 141], the IC50 is, setting by setting: under setting [3], 59.7 nM; under setting [4], 1990 nM.
The like results for `CCN1C(=O)c2c(O)c(=O)c(-c3nnc(Cc4ccc(F)cc4F)s3)cn2N(C)C12CCCCC(=O)C2` (racemic) [Compound 44] were, in that order, 4.36 nM and 240 nM.
The like results for `CCN1C(=O)c2c(O)c(=O)c(C(=O)NCc3ccc(F)cc3F)cn2N(C)[C@@]12CC[C@@H]1C[C@@H]12` [Compound 189] were, in that order, 3.62 nM and 626 nM.
Turning to `CN(CCNC(=O)C1CCC2(CC1)N(C)C(=O)c1c(O)c(=O)c(-c3nnc(Cc4ccc(F)cc4F)s3)cn1N2C)C(=O)OC(C)(C)C` (stereo not shown) [Compound 140], the IC50 runs as follows: under setting [1], 61.6 nM; under setting [5], 28.2 nM.
For `CN1C(=O)c2c(O)c(=O)c(-c3nnc(Cc4ccc(F)cc4F)s3)cn2N(C)C12CCC(C(=O)NCc1cnoc1)CC2` (stereo not shown) [Compound 128] the same measures were 81.8 nM and 101 nM.
In the case of `CCOC1CCC2(CC1)N(CC)C(=O)c1c(O)c(=O)c(C(=O)NCc3ccc(F)cc3F)cn1N2C` (stereo not shown) [Compound 192], the IC50 under setting [1] is 3.66 nM and the IC50 under setting [2] was found to be 67.2 nM.
The like results for `CCN1C(=O)c2c(O)c(=O)c(-c3nnc(Cc4ccc(F)cc4F)s3)cn2N(C)C12CCC(OC(C)C)CC2` (stereo not shown) [Compound 63] were, in that order, 27.6 nM and 391 nM.
With `CCN1C(=O)c2c(O)c(=O)c(-c3nnc(Cc4ccc(F)cc4F)s3)cn2N(C)C12CC[C@H](C(=O)OC)[C@H](C)C2` (stereo partly shown) [Compound 30], the IC50 under setting [5] amounted to 13.1 nM.
For the compound `CN1C(=O)c2c(O)c(=O)c(-c3nnc(Cc4ccc(F)cc4)s3)cn2N(C)C12CCC(O)CC2` (stereo not shown) [Compound 14], the IC50 is, setting by setting: under setting [1], 5.37 nM; under setting [5], 18.8 nM; under setting [2], 198 nM.
Consider `CN1C(=O)c2c(O)c(=O)c(-c3nnc(Cc4ccc(F)cc4F)s3)cn2N(C)C12CCC(CO)CC2` (stereo not shown) [Compound 74], for which the IC50 reads like this: under setting [3], 6.84 nM; under setting [6], 23.6 nM.
